According to US20070141203A1, “Beverages containing water-soluble vitamin E” (priority 2003, published 2007):

What was measured:
[1] = Turbidity of aqueous dispersions and solutions of vitamin E-containing components in demineralized water (Hach turbidimeter Model Ratio/XR); assay type: physicochemical; conditions: 150 +/- 5 ppm in demineralized water; for Turbidity (Initially doped water): initial; for Turbidity (6 wks after doping): six weeks at ambient temperature
Protocol: Preparation of aqueous dispersions and solutions of vitamin E-containing components.
(§1) Sample 1: Vitamin E oil (0.15 g) was added to 1000 g of demineralized water. The mixture was homogenized for approximately 60 minutes using a Gifford-Wood homogenizer, Model 1 L form Greerco Corporation. The sample was very cloudy. The turbidity of the sample was measured using a Hach turbidimeter Model Ratio/XR. The turbidity of the demineralized water was also measured prior to addition of the vitamin E. The sample was stored at ambient temperature for six weeks. […] The sample was shaken well and the turbidity measured.
(§2) Sample 2: Vitamin E acetate oil (0.25 g) from Sigma-Aldrich was added to 1681 g of demineralized water. […] The turbidity of the dispersion was measured and then again after storage for six weeks at ambient temperature.
(§3) Sample 3: Vitamin E succinate powder (0.27 g) from Sigma-Aldrich was added to 1792 g of demineralized water. The mixture was homogenized for approximately 60 minutes. […] The turbidity of the dispersion was measured and then again after storage for six weeks at ambient temperature.
(§4) This solution was stirred at ambient temperature using a magnetic stirrer for several minutes. […] The turbidity of the solution was measured and then measured again after storage at ambient temperature for six weeks.
(§5) Sample 6: To 1790 g of demineralized water was added 0.27 g of a mixture consisting of d,l-α-tocopheryl acetate, modified food starch, and silica. This product is commercially available from Roche Vitamins, Inc., under the name “Dry Vitamin E 15% CC”. The aqueous mixture was agitated for about thirty minutes using a magnetic stirrer. […] The turbidity of the solution was measured and then re-measured after storage for six weeks at ambient temperature.
(§6) Sample 7: To 1802 g of demineralized water was added 0.27 g of a mixture consisting of d-α-tocopheryl acetate, Polysorbate 60, and ethyl alcohol. This product is commercially available from ADM under the name “E 230 Clear®”. The mixture was agitated for about ten minutes using a magnetic stirrer. […] The turbidity of the solution was measured and then re-measured after storage for six weeks at ambient temperature.

[2] = Visual appearance / dissolution of vitamin E-containing components in demineralized water, on preparation and during storage; assay type: physicochemical; conditions: about 150 ppm in demineralized water; for Appearance / dissolution on preparation: after homogenizing or stirring; for Appearance during / after storage: six weeks at ambient temperature
Protocol: as §1, §2, §3, §4, §5, §6

SMILES	Turbidity (Initially doped water) [1] [NTU]	Turbidity (6 wks after doping) [1] [NTU]	Appearance / dissolution on preparation [2]	Appearance during / after storage [2]
Cc1c(C)c2c(c(C)c1O)CC[C@@](C)(CCC[C@H](C)CCC[C@H](C)CCCC(C)C)O2 [Sample 1, d-α-Tocopherol]	55	68	very cloudy	an immiscible layer of oil formed on top of the water
CC(=O)Oc1c(C)c(C)c2c(c1C)CC[C@@](C)(CCC[C@H](C)CCC[C@H](C)CCCC(C)C)O2 [Sample 2, d-α-Tocopherol acetate]	52	61	some immiscible oil droplets remained on the surface of the water	Immiscible oil droplets were still on the surface of the water
Cc1c(C)c2c(c(C)c1OC(=O)CCC(=O)O)CCC(C)(CCCC(C)CCCC(C)CCCC(C)C)O2 (stereo not drawn) [Sample 3, d,l-α-Tocopherol succinate]	8	22	A small amount of powder continued to float on the surface of the water	A small amount of powder continued to reside on the surface of the water
